In ChEMBL document CHEMBL1777688, “TRPV1 modulators: structure-activity relationships using a rational combinatorial approach” (Bioorg Med Chem Lett, 2011):

Experiments:
Assay type in all cases: cell-based
Conditions in all cases: Oocyte
[1] = biological target: Transient receptor potential cation channel subfamily V member 1 (Rattus norvegicus) (UniProt O35433); assay: Blockade of rat recombinant TRPV1 expressed in xenopus oocytes assessed as inhibition of capsaicin-induced whole-cell current at 10 uM at holding potential of -60 mV by electrophysiological assay relative to control
[2] = biological target: Glutamate NMDA receptor; GRIN1/GRIN2A (Homo sapiens) (UniProt Q05586+Q12879); assay: Blockade of human recombinant NR1/NR2A expressed in xenopus oocytes assessed as inhibition of L-glutamate/glycine-induced whole-cell current at 10 uM at holding potential of -60 mV by electrophysiological assay relative to control
[3] = biological target: Transient receptor potential cation channel subfamily V member 1 (Rattus norvegicus) (UniProt O35433); assay: Blockade of rat recombinant TRPV1 expressed in xenopus oocytes assessed as inhibition of capsaicin-induced whole-cell current at 1 uM at holding potential of -60 mV by electrophysiological assay relative to control

Chain of Transient receptor potential cation channel subfamily V member 1 (Rattus norvegicus) (O35433 whole entry): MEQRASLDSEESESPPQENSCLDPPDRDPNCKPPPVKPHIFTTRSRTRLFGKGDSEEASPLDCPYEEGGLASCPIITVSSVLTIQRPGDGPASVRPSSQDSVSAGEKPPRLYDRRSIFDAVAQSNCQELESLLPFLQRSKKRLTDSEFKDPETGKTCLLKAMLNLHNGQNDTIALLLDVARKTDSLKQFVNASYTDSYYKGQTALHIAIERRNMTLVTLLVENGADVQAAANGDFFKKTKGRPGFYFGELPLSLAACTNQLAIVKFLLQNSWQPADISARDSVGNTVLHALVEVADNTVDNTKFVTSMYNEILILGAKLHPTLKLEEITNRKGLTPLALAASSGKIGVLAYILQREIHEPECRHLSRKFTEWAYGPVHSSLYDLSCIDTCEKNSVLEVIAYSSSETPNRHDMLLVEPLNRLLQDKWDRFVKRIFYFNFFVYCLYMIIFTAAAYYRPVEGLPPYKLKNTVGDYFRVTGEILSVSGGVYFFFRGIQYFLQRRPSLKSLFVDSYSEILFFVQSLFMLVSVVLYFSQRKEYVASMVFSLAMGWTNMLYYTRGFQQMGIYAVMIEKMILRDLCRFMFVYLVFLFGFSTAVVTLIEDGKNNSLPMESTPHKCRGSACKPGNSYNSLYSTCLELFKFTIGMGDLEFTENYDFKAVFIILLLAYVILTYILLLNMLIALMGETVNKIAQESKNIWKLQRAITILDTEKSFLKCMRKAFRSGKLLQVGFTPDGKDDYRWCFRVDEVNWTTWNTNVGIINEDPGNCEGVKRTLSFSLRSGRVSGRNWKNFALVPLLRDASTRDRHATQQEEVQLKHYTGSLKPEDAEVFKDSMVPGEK

| SMILES | inhibition [1] [%] | inhibition [2] [%] | inhibition [3] [%] |
| --- | --- | --- | --- |
| CC(=O)N[C@@H](CN)C(=O)N[C@@H](Cc1c(Sc2ccccc2[N+](=O)[O-])[nH]c2ccccc12)C(N)=O | 14.6 | 27 |  |
| NC(=O)[C@H](Cc1c(Sc2ncccc2[N+](=O)[O-])[nH]c2ccccc12)N1C(=O)N[C@@H](CCCN=C(N)N)C1=O | 54.3 | 24.2 |  |
| CC(=O)N[C@@H](CCCCN=C(N1CCCC1)N1CCCC1)C(=O)N[C@@H](Cc1c(Sc2ncccc2[N+](=O)[O-])[nH]c2ccccc12)C(N)=O | 16.6 | 30.2 |  |
| CC(=O)N[C@@H](CCCCN)C(=O)N[C@@H](Cc1c(Sc2ccccc2[N+](=O)[O-])[nH]c2ccccc12)C(N)=O | 14.3 | 15.4 |  |
| NC(=O)[C@H](Cc1c(Sc2ccccc2[N+](=O)[O-])[nH]c2ccccc12)N1C(=O)N[C@@H](CCN=C(N2CCCC2)N2CCCC2)C1=O | 56.3 | 12 |  |
| CC(=O)N[C@@H](CCCN=C(N)N)C(=O)N[C@@H](Cc1c(Sc2ccccc2[N+](=O)[O-])[nH]c2ccccc12)C(N)=O | 29.2 | 25.8 |  |
| NCCCC[C@H](N)C(=O)N[C@@H](Cc1c(Sc2ccccc2[N+](=O)[O-])[nH]c2ccccc12)C(N)=O | 26.3 | 13.5 |  |
| NC(=O)[C@H](Cc1c(Sc2ncccc2[N+](=O)[O-])[nH]c2ccccc12)N1C(=O)N[C@@H](CCCCN=C(N2CCCC2)N2CCCC2)C1=O | 52.5 | 12.9 |  |
| CN(C)C(=NCCCC[C@@H]1NC(=O)N([C@@H](Cc2c(Sc3ncccc3[N+](=O)[O-])[nH]c3ccccc23)C(N)=O)C1=O)N(C)C | 40.9 | 10.8 |  |
| NC(=O)[C@H](Cc1c(Sc2ccccc2[N+](=O)[O-])[nH]c2ccccc12)NC(=O)[C@@H](N)CCCN=C(N)N | 62.8 | 7.7 | 18.7 |
| NC(=O)[C@H](Cc1c(Sc2ncccc2[N+](=O)[O-])[nH]c2ccccc12)NC(=O)[C@@H](N)CCCN=C(N)N | 44.8 | 20.6 |  |
| NCCCC[C@H](N)C(=O)N[C@@H](Cc1c(Sc2ncccc2[N+](=O)[O-])[nH]c2ccccc12)C(N)=O | 17 | 23.6 |  |
| CC(=O)N[C@@H](CCCCN)C(=O)N[C@@H](Cc1c(Sc2ncccc2[N+](=O)[O-])[nH]c2ccccc12)C(N)=O | 12.7 | 13.6 |  |
| CC(=O)N[C@@H](CCN)C(=O)N[C@@H](Cc1c(Sc2ccccc2[N+](=O)[O-])[nH]c2ccccc12)C(N)=O | 27.6 | 27.2 |  |
| CN(C)C(=NCCCC[C@@H]1NC(=O)N([C@@H](Cc2c(Sc3ccccc3[N+](=O)[O-])[nH]c3ccccc23)C(N)=O)C1=O)N(C)C | 13 | 9.3 |  |
| NCCCC[C@@H]1NC(=O)N([C@@H](Cc2c(Sc3ccccc3[N+](=O)[O-])[nH]c3ccccc23)C(N)=O)C1=O | 15.4 | 10.5 |  |
| NCC[C@H](N)C(=O)N[C@@H](Cc1c(Sc2ccccc2[N+](=O)[O-])[nH]c2ccccc12)C(N)=O | 20.6 | 29.7 |  |
| CC(=O)N[C@@H](CCCC[N+](C)(C)C)C(=O)N[C@@H](Cc1c(Sc2ccccc2[N+](=O)[O-])[nH]c2ccccc12)C(N)=O | 29 | 32.2 |  |
| CC(=O)N[C@@H](CCN=C(N1CCCC1)N1CCCC1)C(=O)N[C@@H](Cc1c(Sc2ccccc2[N+](=O)[O-])[nH]c2ccccc12)C(N)=O | 42.4 | 9.6 |  |

| SMILES | inhibition [1] [%] | inhibition [2] [%] | inhibition [3] [%] |
| --- | --- | --- | --- |
| NC(=O)[C@H](Cc1c(Sc2ccccc2[N+](=O)[O-])[nH]c2ccccc12)NC(=O)[C@@H](N)CCCCN=C(N1CCCC1)N1CCCC1 | 55.8 | 8.3 |  |
| NC[C@@H]1NC(=O)N([C@@H](Cc2c(Sc3ccccc3[N+](=O)[O-])[nH]c3ccccc23)C(N)=O)C1=O | 29.9 | 18.4 |  |
| CC(=O)N[C@@H](CCCCN=C(N(C)C)N(C)C)C(=O)N[C@@H](Cc1c(Sc2ncccc2[N+](=O)[O-])[nH]c2ccccc12)C(N)=O | 12 | 20.6 |  |
| CC(=O)N[C@@H](CCCN=C(N)N)C(=O)N[C@@H](Cc1c(Sc2ncccc2[N+](=O)[O-])[nH]c2ccccc12)C(N)=O | 23.9 | 26.3 |  |
| CC(=O)N[C@@H](CN=C(N1CCCC1)N1CCCC1)C(=O)N[C@@H](Cc1c(Sc2ccccc2[N+](=O)[O-])[nH]c2ccccc12)C(N)=O | 49.9 | 30.3 |  |
| NC(=O)[C@H](Cc1c(Sc2ccccc2[N+](=O)[O-])[nH]c2ccccc12)N1C(=O)N[C@@H](CN=C(N2CCCC2)N2CCCC2)C1=O | 51.3 | 43.7 |  |
| CC(=O)N[C@@H](CCCCN=C(N(C)C)N(C)C)C(=O)N[C@@H](Cc1c(Sc2ccccc2[N+](=O)[O-])[nH]c2ccccc12)C(N)=O | 19.9 | 6.1 |  |
| C[N+](C)(C)CCCC[C@H](N)C(=O)N[C@@H](Cc1c(Sc2ccccc2[N+](=O)[O-])[nH]c2ccccc12)C(N)=O | 36.7 | 5.5 |  |
| NC(=O)[C@H](Cc1c(Sc2ccccc2[N+](=O)[O-])[nH]c2ccccc12)NC(=O)[C@@H](N)CCN=C(N1CCCC1)N1CCCC1 | 76.1 | 13.9 | 23.5 |
| NCC[C@@H]1NC(=O)N([C@@H](Cc2c(Sc3ccccc3[N+](=O)[O-])[nH]c3ccccc23)C(N)=O)C1=O | 11 | 16 |  |
| NC(=O)[C@H](Cc1c(Sc2ccccc2[N+](=O)[O-])[nH]c2ccccc12)N1C(=O)N[C@@H](CCCN=C(N)N)C1=O | 50.2 | 20.2 |  |
| NC[C@H](N)C(=O)N[C@@H](Cc1c(Sc2ccccc2[N+](=O)[O-])[nH]c2ccccc12)C(N)=O | 39.3 | 24 |  |
| C[N+](C)(C)CCCC[C@@H]1NC(=O)N([C@@H](Cc2c(Sc3ncccc3[N+](=O)[O-])[nH]c3ccccc23)C(N)=O)C1=O | 19.9 | 20.6 |  |
| CC(=O)N[C@@H](CCCCN=C(N1CCCC1)N1CCCC1)C(=O)N[C@@H](Cc1c(Sc2ccccc2[N+](=O)[O-])[nH]c2ccccc12)C(N)=O | 44 | 6.4 |  |
| NC(=O)[C@H](Cc1c(Sc2ccccc2[N+](=O)[O-])[nH]c2ccccc12)NC(=O)[C@H](CCCCN=C(N1CCCC1)N1CCCC1)N=C(N1CCCC1)N1CCCC1 | 97.2 | 6.8 | 27.3 |
| NCCCC[C@@H]1NC(=O)N([C@@H](Cc2c(Sc3ncccc3[N+](=O)[O-])[nH]c3ccccc23)C(N)=O)C1=O | 24.6 | 26.8 |  |
| CN(C)C(=NCCCC[C@H](N)C(=O)N[C@@H](Cc1c(Sc2ccccc2[N+](=O)[O-])[nH]c2ccccc12)C(N)=O)N(C)C | 49.7 | 69.7 | 21.1 |
| NC(=O)[C@H](Cc1c(Sc2ccccc2[N+](=O)[O-])[nH]c2ccccc12)N1C(=O)N[C@@H](CCCCN=C(N2CCCC2)N2CCCC2)C1=O | 60.4 | 10.7 |  |
| C[N+](C)(C)CCCC[C@@H]1NC(=O)N([C@@H](Cc2c(Sc3ccccc3[N+](=O)[O-])[nH]c3ccccc23)C(N)=O)C1=O | 66.5 | 9.2 | 17.4 |
